Test results published in publication PMC7560456, “Synthesis, Selected Transformations, and Biological Activity of Alkoxy Analogues of Lepidilines A and C” (Materials, 2020).
Entries after “also recorded” stand apart in the source; their conditions may differ. Where a name gives a salt, the structure may show the parent alone. Each block holds one compound with its values, some of them ahead of it.

Key:
MCF-7 cells = assay: MTT in vitro cytotoxicity assay, MCF-7; format: cell-based; settings: concentration required to inhibit metabolic activity by 50%, mean ± SEM
Method: (§1) The promyelocytic leukemia HL-60 and breast cancer adenocarcinoma MCF-7 cell lines were purchased from the European Collection of Cell Cultures (ECACC). […] MCF-7 cells were maintained in Minimum Essential Medium Eagle (Sigma Aldrich, St. Louis, MO, USA) supplemented with 2 mM glutamine and MEM nonessential amino-acid solution (Sigma Aldrich, St. Louis, MO, USA). Both media were supplemented with 10% heat-inactivated fetal bovine serum (Biological Industries, Beit-Haemek, Israel) and antibiotics (100 U/mL penicillin and 100 μg/mL streptomycin) (Sigma-Aldrich, St. Louis, MO, USA). Human umbilical vein endothelial cells (HUVECs) and human mammary gland/breast cell line MCF-10A were purchased from the American Type Culture Collection (ATCC). HUVECs were cultured using the EGM-2 Endothelial Medium BulletKit, whereas MCF-10A was cultured using the MEGM Mammary Epithelial BulletKit, both purchased from Lonza (Lonza, Walkersville, MD, USA).
(§2) The MTT (3-(4, 5-dimethylthiazol-2-yl)-2, 5-diphenyltetrazolium bromide) assay was performed according to the known procedure. Cells were seeded into 24-well plates at a density of 8 × 10^4/mL and left to grow for 24 h. After being cultured for 48 h with various concentrations of the tested compounds, cells were incubated with MTT solution (5 mg/mL in phosphate-buffered saline) for 2 h. Then, the plates were centrifuged and the supernatant was discarded. Dimethyl sulfoxide (DMSO; 1 mL) was added to each well to dissolve the blue formazan product, whose absorbance was measured at 560 nm using a FlexStation 3 Multi-Mode Microplate Reader (Molecular Devices, LLC, CA, USA). The untreated cells were used as control. The data were expressed as mean ± SEM of three independent experiments.

HUVECs = assay: MTT in vitro cytotoxicity assay, HUVEC (normal cells); format: cell-based, human; settings: 48 h, mean ± SEM
Method: as §1, §2

HL-60 cells = assay: MTT in vitro cytotoxicity assay, HL-60; format: cell-based; settings: concentration required to inhibit metabolic activity by 50%, mean ± SEM
Method: as §1, §2

MCF-10A cells = assay: MTT in vitro cytotoxicity assay, MCF-10A (normal cells); format: cell-based, human; settings: 48 h, mean ± SEM
Method: as §1, §2

FDIGROV cell line = test system: FDIGROV cell line; set-up: method as in PMID 12932133; settings: ovarian carcinoma; cited from earlier work
MDA231 cell line = test system: MDA231 cell line; set-up: method as in PMID 12932133; settings: breast carcinoma; cited from earlier work
UMUC3 cell line = test system: UMUC3 cell line; set-up: method as in PMID 12932133; settings: bladder carcinoma; cited from earlier work
PACA2 cell line = test system: PACA2 cell line; set-up: method as in PMID 12932133; settings: pancreatic adenocarcinoma; cited from earlier work

melting point: 103 to 105 °C
Compound: Cc1c(C)[n+]([O-])cn1OCc1ccccc1 [3c, 1-Benzyloxy-4,5-dimethyl-1H-imidazole 3-oxide]

melting point: 101 to 102 °C
Compound: Cc1ccc(COn2c[n+]([O-])c(C)c2C)cc1 [3e, 1-(4-Methylbenzyloxy)-4,5-dimethyl-1H-imidazole 3-oxide]

melting point: 96 to 98 °C
Compound: Cc1cc(C)cc(COn2c[n+]([O-])c(C)c2C)c1 [3f, 1-(3,5-Dimethylbenzyloxy)-4,5-dimethyl-1H-imidazole 3-oxide]

melting point: 167 to 169 °C
Compound: [Br-].c1ccc(CO[n+]2cn(Cc3ccccc3)c(-c3ccccc3)c2-c2ccccc2)cc1 [4b, 1-Benzyl-3-benzyloxy-4,5-diphenylimidazolium bromide]
IC50 (MCF-7 cells; 48 h): 1530 ± 90 nM | IC50 (HUVECs; Homo sapiens, HUVEC): 970 ± 30 nM | IC50 (MCF-10A cells; Homo sapiens, MCF-10A): 570 ± 10 nM | IC50 (HL-60 cells; 48 h): 700 ± 30 nM

melting point: 180 to 182 °C
Compound: [Br-].c1ccc(CO[n+]2c(C34CC5CC(CC(C5)C3)C4)[nH]c(-c3ccccc3)c2-c2ccccc2)cc1 [4d, 1-Adamantyl-3-benzyloxy-4,5-diphenylimidazolium bromide]

melting point: 111 to 113 °C
Compound: Cc1ccc(COn2c[n+](OCc3ccc(C)cc3)c(C)c2C)cc1.[Br-] [5c, 1,3-Di-(4-methylbenzyloxy)-4,5-dimethylimidazolium bromide]
IC50 (MCF-7 cells; Homo sapiens, MCF7, 48 h): 24200 ± 460 nM | IC50 (HL-60 cells; Homo sapiens, HL-60, 48 h): 4880 ± 180 nM

melting point: 124 to 126 °C
Compound: Cc1ccc(CO[n+]2cn(OCc3ccccc3)c(C)c2C)cc1.[Br-] [5f, 1-Benzyloxy-3-(4-methylbenzyloxy)-4,5-dimethylimidazolium bromide]
IC50 (MCF-7 cells; Homo sapiens, MCF7, 48 h): 16600 ± 1060 nM | IC50 (HL-60 cells; Homo sapiens, HL-60, 48 h): 2910 ± 80 nM

melting point: 116 to 117 °C
Compound: Cc1c(C)n(OCc2ccccc2)c(=S)n1Cc1ccccc1 [7a, 1-Benzyl-3-benzyloxy-4,5-dimethylimidazole-2-thione]

melting point: 87 to 88 °C
Compound: Cc1c(C)n(OCc2ccccc2)c(=S)n1OCc1ccccc1 [7c, 1,3-Dibenzyloxy-4,5-dimethylimidazole-2-thione]

Further lines, the compound ahead of its results:

Compound: 1-Adamantyloxy-3-(2-methylbenzyloxy)-4,5-dimethylimidazolium bromide [5i]
IC50 (MCF-7 cells; 48 h): 5950 ± 350 nM | IC50 (HUVECs): 3960 ± 80 nM | IC50 (HL-60 cells; 48 h): 670 ± 10 nM

Compound: 1-Adamantyloxy-3-(3,5-dimethylbenzyloxy)-4,5-dimethylimidazolium bromide [5k]
IC50 (MCF-7 cells; 48 h): 2400 ± 60 nM | IC50 (HUVECs): 1820 ± 80 nM | IC50 (MCF-10A cells): 1360 ± 10 nM | IC50 (HL-60 cells; 48 h): 360 ± 10 nM

Compound: 1-Adamantyloxy-3-(4-methylbenzyloxy)-4,5-dimethylimidazolium bromide [5j]
IC50 (MCF-7 cells; 48 h): 2630 ± 30 nM | IC50 (HUVECs): 1940 ± 10 nM | IC50 (MCF-10A cells): 1690 ± 40 nM | IC50 (HL-60 cells; 48 h): 390 ± 10 nM

Compound: 1-Adamantyloxy-3-benzyloxy-4,5-dimethylimidazolium bromide [5h]
IC50 (MCF-7 cells; 48 h): 6760 ± 80 nM | IC50 (HUVECs): 3700 ± 230 nM | IC50 (MCF-10A cells): 6400 ± 30 nM | IC50 (HL-60 cells; 48 h): 880 ± 80 nM

Compound: Cc1cc(C)cc(CO[n+]2cn(OC34CC5CC(CC(C5)C3)C4)c(C)c2C)c1 (as salt: phosphate) (hydrate or solvate) [6b, 1-Adamantyloxy-3-(3,5-dimethylbenzyloxy)-4,5-dimethylimidazolium hexafluorophosphate]
melting point: 150 to 152 °C

Compound: c1ccc(CO[n+]2cn(Cc3ccccc3)c(-c3ccccc3)c2-c2ccccc2)cc1 (as salt: phosphate) [6a, 1-Benzyl-3-benzyloxy-4,5-diphenylimidazolium hexafluorophosphate]
melting point: 163 to 166 °C

Compound: Cc1ccccc1COn1c[n+]([O-])c(C)c1C [3d, 1-(2-Methylbenzyloxy)-4,5-dimethyl-1H-imidazole 3-oxide]
melting point: 89 to 91 °C

Compound: Cc1c(C)[n+](OCc2ccccc2)cn1Cc1ccccc1.[Br-] [4a, 1-Benzyl-3-benzyloxy-4,5-dimethylimidazolium bromide]
melting point: 148 to 150 °C

Compound: Cc1[nH]c(C23CC4CC(CC(C4)C2)C3)[n+](OCc2ccccc2)c1C.[Br-] [4c, 1-Adamantyl-3-benzyloxy-4,5-dimethylimidazolium bromide]
melting point: 196 to 197 °C

Compound: Cc1c(C)[n+](OCc2ccccc2)cn1OCc1ccccc1.[Br-] [5a, 1,3-Dibenzyloxy-4,5-dimethylimidazolium bromide]
melting point: 110 to 111 °C

Compound: Cc1ccccc1COn1c[n+](OCc2ccccc2C)c(C)c1C.[Br-] [5b, 1,3-Di-(2-methylbenzyloxy)-4,5-dimethylimidazolium bromide]
IC50 (MCF-7 cells; Homo sapiens, MCF7, 48 h): 8300 ± 10 nM | melting point: 132 to 133 °C | IC50 (HL-60 cells; Homo sapiens, HL-60, 48 h): 1540 ± 10 nM

Compound: Cc1cc(C)cc(COn2c[n+](OCc3cc(C)cc(C)c3)c(C)c2C)c1.[Br-] [5d, 1,3-Di-(3,5-dimethylbenzyloxy)-4,5-dimethylimidazolium bromide]
IC50 (MCF-7 cells; Homo sapiens, MCF7, 48 h): 8570 ± 370 nM | melting point: 141 to 143 °C | IC50 (HL-60 cells; Homo sapiens, HL-60, 48 h): 1460 ± 20 nM

Compound: Cc1ccccc1CO[n+]1cn(OCc2ccccc2)c(C)c1C [5e, 1-Benzyloxy-3-(2-methylbenzyloxy)-4,5-dimethylimidazolium bromide]
IC50 (MCF-7 cells; Homo sapiens, MCF7, 48 h): 11600 ± 250 nM | IC50 (HL-60 cells; Homo sapiens, HL-60, 48 h): 3160 ± 180 nM

Compound: c1ccc(CO[n+]2cn(Cc3ccccc3)c(-c3ccccc3)c2-c2ccccc2)cc1 [6a, 1-Benzyl-3-benzyloxy-4,5-diphenylimidazolium hexafluorophosphate]
IC50 (MCF-7 cells; Homo sapiens, MCF7, 48 h): 1290 ± 10 nM | IC50 (HL-60 cells; Homo sapiens, HL-60, 48 h): 640 ± 20 nM

Compound: Cc1cc(C)cc(CO[n+]2cn(OC34CC5CC(CC(C5)C3)C4)c(C)c2C)c1 [6b, 1-Adamantyloxy-3-(3,5-dimethylbenzyloxy)-4,5-dimethylimidazolium hexafluorophosphate]
IC50 (MCF-7 cells; Homo sapiens, MCF7, 48 h): 2520 ± 30 nM | IC50 (HL-60 cells; Homo sapiens, HL-60, 48 h): 370 ± 10 nM

Compound: Cc1c(C)[n+](Cc2ccccc2)cn1Cc1ccccc1 [lepidiline A]
activity against FDIGROV cell line (FDIGROV cell line): some activity

Compound: Cc1c(C)[n+](Cc2ccccc2)c(C)n1Cc1ccccc1 [lepidiline B]
activity against MDA231 cell line (MDA231 cell line): promising activity; also recorded: highly cytotoxic | activity against FDIGROV cell line (FDIGROV cell line): some activity; also recorded: highly cytotoxic | activity against UMUC3 cell line (UMUC3 cell line): promising activity; also recorded: highly cytotoxic | activity against PACA2 cell line (PACA2 cell line): promising activity; also recorded: highly cytotoxic
